pEC50: −log10 of the molar value.
What was measured:
[1] = test system: mTLR9mut (D535→A and Y537→A); test: NF-κB luciferase assay, HEK 293 cells transfected with mutated full length mTLR9; assay type: cell-based, murine; conditions: 1 μM CpG-DNA
Protocol: FIG. 3D is a bar graph depicting activation of mTLR9- and mTLR9mut-transfected cells from FIG. 3C. Cells were stimulated with 1 μM CpG-DNA or 10 ng/ml of the TLR-independent stimulus 12-O-tetradecanoylphorbol 13-acetate (TPA) and subsequent NF-κB induction was analyzed. Activation is expressed as fold induction compared to no stimulation.
Mutation. For mutation of wild-type mTLR9 amino acids D535 and Y537 to two alanines, the primers 5′-[…]-3′ (SEQ ID NO:5) and 5′-[…]-3′ (SEQ ID NO:6) were used to generate mTLR9-mut. A site-specific-mutagenesis kit from Stratagene (Amsterdam, Netherlands) was applied according to the manufacturer's protocol. All PCR fragments were sequenced and found error-free.
NF-κB luciferase assay. For monitoring transient NF-κB activation, 3×10^6 HEK 293 cells were electroporated at 200 volt and 950 μF with 20 ng of a NF-κB luciferase reporter plasmid (kindly provided by Patrick Baeuerle, Munich, Germany) and 1 μg mTLR2 (kindly provided by Tularik, Inc., South San Francisco, USA), mTLR9, or mTLR9-mut expression plasmid. Cells were seeded at 10^5 cells per well and after overnight culture stimulated with 1 μM phosphorothioated CpG-DNA 1668 (SEQ ID NO:1), 1 μM non-CpG-DNA 1668GC (SEQ ID NO:3), 1 μg/ml Pam3CysK4 or 1 μg/ml PHCK4 for further 8 hours. […]

[2] = test system: murine TLR9; conditions: read-out: concentration for half-maximal activation of murine TLR9; cited from earlier work

## 5′-TCCATGACGTTCCTGATGCT-3′ (chemistry not given here) [CpG-DNA 1668, synthetic CpG oligodeoxynucleotide, TLR9 ligand]
[1]
  response of cells with mutated full length mTLR9 to CpG-DNA (NF-κB induction): did not respond
[2]
  pEC50: 7.15

Source: patent US20050100983A1, “Cell-free methods for identifying compounds that affect toll-like receptor 9 (TLR9) signaling” (Coley Pharmaceutical GmbH, priority 2003, published 2005)
